Results as given in ChEMBL document CHEMBL1201862, “PubChem BioAssay data set” (2004).
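Five compound concentrations were applied to cells in 96-well plates for 48 hours; endpoints were derived by simple linear interpolation of the resulting dose-response curve. At the GI50, growth is halved.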 Activity calls are given as the source filed them. No stated cut-off is given here; in the data, active = GI50 up to about 1.1 µM and inactive = higher.

What was measured:
Experiment in all cases: growth of human tumour cells (NCI), 48 h
DLD-1 = system: DLD-1
DMS-114 = system: DMS-114
HOP-18 = system: HOP-18
KM-20L2 = system: KM-20L2
LXFL 529 = system: LXFL 529
M19-MEL = system: M19-MEL
RXF 631 = system: RXF 631
SNB-78 = system: SNB-78
XF498 = system: XF498

`CCCN(CCCN)/[N+]([O-])=N\O` was tested. Which GI50 (DLD-1) did it give?
Its GI50 is > 100 µM (inactive).

And the GI50 (DMS-114)?
Its GI50 is > 100 µM (inactive).

What about the GI50 (HOP-18) of the same compound?
Its GI50 is > 100 µM (inactive).

And the GI50 (KM-20L2)?
Its GI50 is 0.4 µM (active).

And the GI50 (LXFL 529)?
Its GI50 is > 100 µM (inactive).

And the GI50 (M19-MEL)?
Its GI50 is > 100 µM (inactive).

What about the GI50 (RXF 631) of the same compound?
Its GI50 is > 100 µM (inactive).

And the GI50 (SNB-78)?
The GI50 was > 100 µM (inactive).

How did the GI50 (DLD-1) turn out when `O=C1c2ccccc2C(=O)c2sc(Nc3ccc([N+](=O)[O-])cc3)nc21` was run?
Its GI50 is 4.19 µM (inactive).

What about the GI50 (DMS-114) of the same compound?
The GI50 was 2.49 µM (inactive).

What about the GI50 (HOP-18) of the same compound?
The GI50 was 4.33 µM (inactive).

And the GI50 (KM-20L2)?
The GI50 was 22.7 µM (inactive).

What about the GI50 (LXFL 529) of the same compound?
Its GI50 is 1.66 µM (inactive).

And the GI50 (M19-MEL)?
Its GI50 is 1.55 µM (inactive).

What about the GI50 (RXF 631) of the same compound?
The GI50 was 19.5 µM (inactive).

What about the GI50 (SNB-78) of the same compound?
The GI50 was 10 µM (inactive).

And the GI50 (XF498)?
Its GI50 is 2.17 µM (inactive).

What does the source list for `COC(=O)Cc1cc(=O)oc2c1C(=O)CCC2`?
GI50 (DLD-1): > 100 µM (inactive); GI50 (DMS-114): > 100 µM (inactive); GI50 (KM-20L2): > 100 µM (inactive); GI50 (LXFL 529): > 100 µM (inactive); GI50 (M19-MEL): > 100 µM (inactive); GI50 (SNB-78): > 100 µM (inactive); GI50 (XF498): > 100 µM (inactive)

How did the GI50 (DLD-1) turn out when `CCc1c(Cc2[nH]c(Cc3[nH]c(C=O)c(C)c3CC)c(CC)c2CC)[nH]c(C=O)c1C` was run?
The GI50 was > 100 µM (inactive).

And the GI50 (DMS-114)?
The GI50 was > 100 µM (inactive).

And the GI50 (HOP-18)?
Its GI50 is > 100 µM (inactive).

And the GI50 (KM-20L2)?
The GI50 was > 100 µM (inactive).

And the GI50 (LXFL 529)?
The GI50 was > 100 µM (inactive).

What about the GI50 (M19-MEL) of the same compound?
The GI50 was > 100 µM (inactive).

What about the GI50 (SNB-78) of the same compound?
The GI50 was > 100 µM (inactive).

What about the GI50 (XF498) of the same compound?
Its GI50 is > 100 µM (inactive).

`COc1cc(O)c2c(c1)C(=O)C1=C(C2=O)C(O)C[C@@](C)(O)C1` (stereo partly specified) was tested. Which GI50 (DLD-1) did it give?
The GI50 was 0.229 µM (active).

And the GI50 (DMS-114)?
The GI50 was 1.5 µM (inactive).

What about the GI50 (KM-20L2) of the same compound?
The GI50 was 3.36 µM (inactive).

And the GI50 (LXFL 529)?
Its GI50 is 0.582 µM (active).

What about the GI50 (M19-MEL) of the same compound?
The GI50 was 0.452 µM (active).

What about the GI50 (SNB-78) of the same compound?
The GI50 was 1.9 µM (inactive).

And the GI50 (XF498)?
The GI50 was 1.9 µM (inactive).

`O=C1NC2C(=CC(O)C(O)C2O)c2cc3c(cc21)OCO3` (stereo unspecified) was tested. Which GI50 (DLD-1) did it give?
The GI50 was 0.255 µM (active).

What about the GI50 (DMS-114) of the same compound?
The GI50 was 0.43 µM (active).

And the GI50 (HOP-18)?
Its GI50 is 1.48 µM (inactive).

What about the GI50 (KM-20L2) of the same compound?
Its GI50 is 0.305 µM (active).

And the GI50 (LXFL 529)?
Its GI50 is 0.43 µM (active).

And the GI50 (M19-MEL)?
The GI50 was 0.251 µM (active).

What about the GI50 (RXF 631) of the same compound?
Its GI50 is 0.433 µM (active).

What about the GI50 (SNB-78) of the same compound?
The GI50 was 0.569 µM (active).

What about the GI50 (XF498) of the same compound?
The GI50 was 0.171 µM (active).

For `N#Cc1ccc(/C=N/C23CC4CC(CC(C4)C2)C3)cc1`, which GI50 (DMS-114) is on record?
The GI50 was 56 µM (inactive).

And the GI50 (KM-20L2)?
The GI50 was > 100 µM (inactive).

What about the GI50 (M19-MEL) of the same compound?
Its GI50 is > 100 µM (inactive).

And the GI50 (RXF 631)?
Its GI50 is 32.5 µM (inactive).

What about the GI50 (SNB-78) of the same compound?
Its GI50 is > 100 µM (inactive).

For `CC(C)(C)c1cc(C(P(=O)(O)O)P(=O)(O)O)cc(C(C)(C)C)c1O`, which GI50 (DLD-1) is on record?
The GI50 was > 100 µM (inactive).

And the GI50 (DMS-114)?
The GI50 was > 100 µM (inactive).

What about the GI50 (HOP-18) of the same compound?
Its GI50 is > 100 µM (inactive).

And the GI50 (KM-20L2)?
Its GI50 is > 100 µM (inactive).

And the GI50 (LXFL 529)?
The GI50 was > 100 µM (inactive).

And the GI50 (M19-MEL)?
Its GI50 is > 100 µM (inactive).

And the GI50 (SNB-78)?
Its GI50 is > 100 µM (inactive).

Which results are given for `COC1OC(C)C(O)CC1OS(=O)(=O)c1ccc(C)cc1` (stereo unspecified)?
GI50 (DMS-114): > 100 µM (inactive); GI50 (HOP-18): > 100 µM (inactive); GI50 (KM-20L2): > 100 µM (inactive); GI50 (LXFL 529): > 100 µM (inactive); GI50 (M19-MEL): > 100 µM (inactive); GI50 (SNB-78): > 100 µM (inactive)

For `Cc1c2n(c(=O)[nH]c1=O)C1OC(CO)C(O2)C1O` (stereo unspecified), which GI50 (DLD-1) is on record?
The GI50 was > 100 µM (inactive).

And the GI50 (DMS-114)?
Its GI50 is > 100 µM (inactive).

And the GI50 (KM-20L2)?
Its GI50 is > 100 µM (inactive).

What about the GI50 (LXFL 529) of the same compound?
Its GI50 is > 100 µM (inactive).

And the GI50 (M19-MEL)?
The GI50 was > 100 µM (inactive).

What about the GI50 (SNB-78) of the same compound?
Its GI50 is > 100 µM (inactive).

What does the source list for `CC(C)C1CCC/C=C/C=C/C=C/C=C/C(OC2OC(C)C(O)C(N)C2O)CC2OC(O)(CC(O)CC(O)C(O)CCC(=O)O1)CC(O)C2C(=O)O` (stereo unspecified)?
GI50 (DMS-114): > 52.5 µM (inactive); GI50 (HOP-18): > 52.5 µM (inactive); GI50 (KM-20L2): > 52.5 µM (inactive); GI50 (LXFL 529): > 52.5 µM (inactive); GI50 (M19-MEL): > 52.5 µM (inactive); GI50 (SNB-78): > 52.5 µM (inactive)

What does the source list for `COC1(OC)C(N(C)C)=C(Cl)C(=O)/C1=C/C=O`?
GI50 (DLD-1): > 100 µM (inactive); GI50 (DMS-114): > 100 µM (inactive); GI50 (HOP-18): > 100 µM (inactive); GI50 (KM-20L2): > 100 µM (inactive); GI50 (LXFL 529): > 100 µM (inactive); GI50 (M19-MEL): 74.6 µM (inactive)

How did the GI50 (DMS-114) turn out when `C[S+](C)CCOC(=O)C(=[N+]=[N-])c1ccc([N+](=O)[O-])cc1` was run?
Its GI50 is > 100 µM (inactive).

What about the GI50 (HOP-18) of the same compound?
The GI50 was > 100 µM (inactive).

What about the GI50 (KM-20L2) of the same compound?
The GI50 was > 100 µM (inactive).

What about the GI50 (LXFL 529) of the same compound?
Its GI50 is > 100 µM (inactive).

What about the GI50 (M19-MEL) of the same compound?
Its GI50 is > 100 µM (inactive).

And the GI50 (RXF 631)?
The GI50 was > 100 µM (inactive).

And the GI50 (SNB-78)?
Its GI50 is > 100 µM (inactive).

And the GI50 (XF498)?
Its GI50 is > 100 µM (inactive).

What does the source list for `O=c1[nH]nc2ccccc2c1Cc1ccccc1`?
GI50 (DLD-1): > 100 µM (inactive); GI50 (DMS-114): > 100 µM (inactive); GI50 (HOP-18): > 100 µM (inactive); GI50 (KM-20L2): > 100 µM (inactive); GI50 (M19-MEL): > 100 µM (inactive); GI50 (SNB-78): > 100 µM (inactive); GI50 (XF498): > 100 µM (inactive)

With `CC(=O)C1C(=O)N(C(C)C)C[C@@H]2CCC(=O)C[C@H]12` (stereo partly specified) as the compound, how does the GI50 (DLD-1) read?
The GI50 was > 100 µM (inactive).

What about the GI50 (DMS-114) of the same compound?
Its GI50 is > 100 µM (inactive).

What about the GI50 (LXFL 529) of the same compound?
Its GI50 is > 100 µM (inactive).

What about the GI50 (M19-MEL) of the same compound?
Its GI50 is > 100 µM (inactive).

And the GI50 (RXF 631)?
The GI50 was > 100 µM (inactive).

What about the GI50 (SNB-78) of the same compound?
The GI50 was > 100 µM (inactive).

And the GI50 (XF498)?
Its GI50 is > 100 µM (inactive).

`COC(=O)C(/C(=N/N)C(=O)Nc1cc(Cl)ccc1Cl)c1nc2ccc([N+](=O)[O-])cc2nc1O` (stereo unspecified) was tested. Which GI50 (DMS-114) did it give?
The GI50 was 50.2 µM (inactive).

What about the GI50 (KM-20L2) of the same compound?
The GI50 was 49.9 µM (inactive).

And the GI50 (LXFL 529)?
The GI50 was 48 µM (inactive).

What about the GI50 (SNB-78) of the same compound?
The GI50 was > 100 µM (inactive).

And the GI50 (XF498)?
Its GI50 is > 100 µM (inactive).

Which results are given for `Cc1ccc2c(C)c3ccc4ccccc4c3c[n+]2c1.[O-][Cl+3]([O-])([O-])[O-]`?
GI50 (DLD-1): 37.8 µM (inactive); GI50 (DMS-114): 10.6 µM (inactive); GI50 (HOP-18): 12.4 µM (inactive); GI50 (KM-20L2): 33.3 µM (inactive); GI50 (LXFL 529): 9.1 µM (inactive); GI50 (M19-MEL): 4.88 µM (inactive); GI50 (SNB-78): 41.4 µM (inactive)

How did the GI50 (DMS-114) turn out when `Cc1c(C(=O)/C=C/c2c(Cl)cccc2Cl)c(=O)n(-c2ccccc2)n1C` was run?
The GI50 was 22.7 µM (inactive).

And the GI50 (KM-20L2)?
The GI50 was 19.6 µM (inactive).

What about the GI50 (LXFL 529) of the same compound?
The GI50 was 5.47 µM (inactive).

What about the GI50 (M19-MEL) of the same compound?
Its GI50 is 8.55 µM (inactive).

And the GI50 (SNB-78)?
The GI50 was 6.24 µM (inactive).

What about the GI50 (XF498) of the same compound?
The GI50 was 19.6 µM (inactive).

`Nc1ccn(C2(CO)C=C(CO)C(O)C2O)c(=O)n1` (stereo unspecified) was tested. Which GI50 (DLD-1) did it give?
The GI50 was > 25.8 µM (inactive).

And the GI50 (DMS-114)?
Its GI50 is > 25.8 µM (inactive).

What about the GI50 (HOP-18) of the same compound?
Its GI50 is > 25.8 µM (inactive).

What about the GI50 (KM-20L2) of the same compound?
Its GI50 is > 25.8 µM (inactive).

What about the GI50 (LXFL 529) of the same compound?
The GI50 was > 25.8 µM (inactive).

And the GI50 (M19-MEL)?
The GI50 was > 25.8 µM (inactive).

And the GI50 (SNB-78)?
The GI50 was > 25.8 µM (inactive).
